What was measured:
Assay type in all cases: cell-based
M1 muscarinic receptor = target: T1, M1 muscarinic receptor (Homo sapiens, UniProt P11229); assay: Functional mobilization of intracellular calcium (FLIPR), M1-CHO cells; conditions: for M1 Activity: M1-CHO cells, calcium mobilization (FLIPR)
T1 construct: expressed in transfected cells; host or cells: CHO (M1-CHO)
T1 sequence (P11229 1-460): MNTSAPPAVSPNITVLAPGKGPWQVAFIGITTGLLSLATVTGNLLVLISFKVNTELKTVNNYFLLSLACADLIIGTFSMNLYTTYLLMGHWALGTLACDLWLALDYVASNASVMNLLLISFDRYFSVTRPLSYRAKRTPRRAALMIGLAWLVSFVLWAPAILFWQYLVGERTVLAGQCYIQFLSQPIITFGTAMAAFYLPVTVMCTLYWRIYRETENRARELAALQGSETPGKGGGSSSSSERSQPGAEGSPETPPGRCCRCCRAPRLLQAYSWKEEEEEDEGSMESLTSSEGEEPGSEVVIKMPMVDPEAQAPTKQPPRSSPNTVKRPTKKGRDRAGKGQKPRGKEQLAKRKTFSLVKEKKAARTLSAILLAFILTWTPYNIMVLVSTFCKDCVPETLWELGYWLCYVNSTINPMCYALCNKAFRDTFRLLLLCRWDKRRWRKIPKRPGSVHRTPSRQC
Outline: (§1)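 FLIPR fluorescence (ex 488, em 540 nm) recorded 60 sec after compound addition to dye-loaded CHO cells. Agonist mode: compound alone. Antagonist mode: 15 min compound pre-incubation, then carbachol at EC80, or co-application. Efficacy expressed as % of maximal carbachol response.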

M2 muscarinic receptor = target: T2, M2 muscarinic receptor (Homo sapiens, UniProt P08172); assay: Functional mobilization of intracellular calcium (FLIPR), M2-CHO cells; conditions: for M2 Activity: M2-CHO cells, calcium mobilization (FLIPR)
T2 construct: expressed in transfected cells; host or cells: CHO (M2-CHO)
T2 sequence (P08172 1-466): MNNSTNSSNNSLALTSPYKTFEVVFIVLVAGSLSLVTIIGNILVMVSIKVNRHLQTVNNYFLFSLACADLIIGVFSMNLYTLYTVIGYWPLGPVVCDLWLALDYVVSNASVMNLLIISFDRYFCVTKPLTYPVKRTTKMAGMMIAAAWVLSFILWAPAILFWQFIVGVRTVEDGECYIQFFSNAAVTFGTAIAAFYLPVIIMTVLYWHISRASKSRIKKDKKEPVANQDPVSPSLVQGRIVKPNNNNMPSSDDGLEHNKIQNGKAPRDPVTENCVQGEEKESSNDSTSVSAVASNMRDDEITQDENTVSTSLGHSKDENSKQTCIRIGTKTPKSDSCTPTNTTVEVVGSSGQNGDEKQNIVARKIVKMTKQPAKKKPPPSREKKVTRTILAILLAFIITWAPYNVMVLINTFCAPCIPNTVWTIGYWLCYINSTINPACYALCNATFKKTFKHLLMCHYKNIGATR
Outline: as §1

M3 muscarinic receptor = target: T3, M3 muscarinic receptor (Homo sapiens, UniProt P20309); assay: Functional mobilization of intracellular calcium (FLIPR), M3-CHO cells; conditions: for M3 Activity: M3-CHO cells, calcium mobilization (FLIPR)
T3 construct: expressed in transfected cells; host or cells: CHO (M3-CHO)
T3 sequence (P20309 whole entry): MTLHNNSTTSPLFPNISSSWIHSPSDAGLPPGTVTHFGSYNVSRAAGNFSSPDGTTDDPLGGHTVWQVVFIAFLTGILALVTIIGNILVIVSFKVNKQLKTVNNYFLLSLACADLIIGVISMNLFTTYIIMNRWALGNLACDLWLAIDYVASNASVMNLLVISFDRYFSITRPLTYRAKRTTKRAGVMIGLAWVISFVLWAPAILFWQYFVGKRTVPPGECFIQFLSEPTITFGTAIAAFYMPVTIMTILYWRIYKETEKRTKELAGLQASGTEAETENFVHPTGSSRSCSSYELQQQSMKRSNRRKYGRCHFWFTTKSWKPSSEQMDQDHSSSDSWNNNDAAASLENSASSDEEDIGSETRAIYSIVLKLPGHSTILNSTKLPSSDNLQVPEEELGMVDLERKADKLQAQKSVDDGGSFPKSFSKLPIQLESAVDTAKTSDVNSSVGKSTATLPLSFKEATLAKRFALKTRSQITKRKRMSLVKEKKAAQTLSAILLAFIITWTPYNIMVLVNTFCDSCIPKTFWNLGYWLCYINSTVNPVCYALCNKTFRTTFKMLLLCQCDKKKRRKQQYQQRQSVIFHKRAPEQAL
Outline: as §1

M4 muscarinic receptor = target: T4, M4 muscarinic receptor (Homo sapiens, UniProt P08173); assay: Functional mobilization of intracellular calcium (FLIPR), M4-CHO cells; conditions: for M4 Activity: M4-CHO cells, calcium mobilization (FLIPR)
T4 construct: expressed in transfected cells; host or cells: CHO (M4-CHO)
T4 sequence (P08173 1-479): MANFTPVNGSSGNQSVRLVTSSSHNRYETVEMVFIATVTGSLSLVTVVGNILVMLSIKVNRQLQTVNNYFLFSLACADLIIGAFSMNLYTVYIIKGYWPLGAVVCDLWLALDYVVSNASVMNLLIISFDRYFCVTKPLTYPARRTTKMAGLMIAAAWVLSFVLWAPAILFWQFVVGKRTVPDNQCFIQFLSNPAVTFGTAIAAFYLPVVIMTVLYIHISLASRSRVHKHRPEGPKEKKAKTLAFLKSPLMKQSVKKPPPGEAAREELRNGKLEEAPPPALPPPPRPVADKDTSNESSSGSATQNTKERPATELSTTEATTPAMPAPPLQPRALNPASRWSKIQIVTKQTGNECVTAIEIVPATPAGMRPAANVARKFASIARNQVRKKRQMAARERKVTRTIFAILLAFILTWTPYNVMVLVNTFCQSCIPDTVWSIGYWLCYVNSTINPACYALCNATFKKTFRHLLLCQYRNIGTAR
Outline: as §1

[1] = 100% efficacy = maximum response obtained with the Carbachol control
[2] = 100% efficacy is the maximum response obtained with the Carbachol control

SMILES | Emax (M1 muscarinic receptor; [1]) | M1 Activity (M1 muscarinic receptor) | Emax (M2 muscarinic receptor; [1]) | M2 Activity (M2 muscarinic receptor) | Emax (M3 muscarinic receptor; [1]) | M3 Activity (M3 muscarinic receptor) | Emax (M4 muscarinic receptor; [1]) | M4 Activity (M4 muscarinic receptor) | Emax (M1 muscarinic receptor; [2]) | Emax (M2 muscarinic receptor; [2]) | Emax (M3 muscarinic receptor; [2]) | Emax (M4 muscarinic receptor; [2])
CCOC(=O)N1CCC(CN2CCC(c3cccc(C(F)(F)F)c3C)CC2)CC1 [Compound 337] | 25 to 100% | ++ (activity was measured to be from 1.0 μM to 5.0 μM) | < 25% | + (activity was measured to be greater than 5.0 μM) | < 25% | + (activity was measured to be greater than 5.0 μM) | 25 to 100% | +++ (activity was measured to be less than 1.0 μM) | – | – | – | –
COc1ccc(Cl)cc1C1CCN(C2CC3CCC(C3)C2)CC1 (stereo not shown) [Compound 27] | 25 to 100% | ++ (activity was measured to be from 1.0 μM to 5.0 μM) | 25 to 100% | ++ (activity was measured to be from 1.0 μM to 5.0 μM) | < 25% | + (activity was measured to be greater than 5.0 μM) | 25 to 100% | +++ (activity was measured to be less than 1.0 μM) | – | – | – | –
COc1ccccc1C1CCN(C2CCC(C3CCC(=O)CC3)CC2)CC1 (stereo not shown) [Compound 370] | < 25% | + (activity was measured to be greater than 5.0 μM) | < 25% | + (activity was measured to be greater than 5.0 μM) | < 25% | + (activity was measured to be greater than 5.0 μM) | 25 to 100% | ++ (activity was measured to be from 1.0 μM to 5.0 μM) | – | – | – | –
c1cc2c(c(C3CCN(C4C[C@@H]5CC[C@@H]4C5)CC3)c1)OCO2 (stereo partly shown) [Compound 236] | 25 to 100% | ++ (activity was measured to be from 1.0 μM to 5.0 μM) | < 25% | + (activity was measured to be greater than 5.0 μM) | < 25% | + (activity was measured to be greater than 5.0 μM) | 25 to 100% | +++ (activity was measured to be less than 1.0 μM) | – | – | – | –
Cc1ccc(C)c(C2CCN(C3CC4CCC3C4)CC2)c1 (stereo not shown) [Compound 341] | < 25% | + (activity was measured to be greater than 5.0 μM) | < 25% | + (activity was measured to be greater than 5.0 μM) | – | + (activity was measured to be greater than 5.0 μM) | 25 to 100% | ++ (activity was measured to be from 1.0 μM to 5.0 μM) | – | – | – | –
COc1ccccc1C1CC2CCC(C1)N2C1CCOCC1 (stereo not shown) [Compound 37] | < 25% | + (activity was measured to be greater than 5.0 μM) | < 25% | + (activity was measured to be greater than 5.0 μM) | < 25% | + (activity was measured to be greater than 5.0 μM) | < 25% | + (activity was measured to be greater than 5.0 μM) | – | – | – | –
CCON=C1CCC(N2CCC(c3cc(Cl)ccc3OC)CC2)CC1 (stereo not shown) [Compound 417, 4-(4-(5-chloro-2-methoxyphenyl)piperidin-1-yl)cyclohexanone O-ethyl oxime] | – | +++ (activity was measured to be less than 1.0 μM) | – | +++ (activity was measured to be less than 1.0 μM) | – | + (activity was measured to be greater than 5.0 μM) | – | +++ (activity was measured to be less than 1.0 μM) | 25 to 100% | 25 to 100% | 25 to 100% | > 100%
COc1ccccc1C1CCN(CC2=CC[C@@H]3C[C@@H]2C3(C)C)CC1 [Compound 291] | < 25% | + (activity was measured to be greater than 5.0 μM) | < 25% | + (activity was measured to be greater than 5.0 μM) | < 25% | + (activity was measured to be greater than 5.0 μM) | < 25% | + (activity was measured to be greater than 5.0 μM) | – | – | – | –
CCOC(=O)N1CCC(CN2CCC(c3cc(-c4ccc5c(c4)OCO5)ccc3OC)CC2)CC1 [Compound 297] | 25 to 100% | ++ (activity was measured to be from 1.0 μM to 5.0 μM) | < 25% | + (activity was measured to be greater than 5.0 μM) | < 25% | + (activity was measured to be greater than 5.0 μM) | 25 to 100% | ++ (activity was measured to be from 1.0 μM to 5.0 μM) | – | – | – | –
CCOC(=O)N1CCC(CN2CCC(F)(c3cc(F)ccc3OC)CC2)CC1 [Compound 253] | 25 to 100% | +++ (activity was measured to be less than 1.0 μM) | < 25% | ++ (activity was measured to be from 1.0 μM to 5.0 μM) | < 25% | + (activity was measured to be greater than 5.0 μM) | 25 to 100% | +++ (activity was measured to be less than 1.0 μM) | – | – | – | –
COc1ccc(Cl)cc1C1(F)CCN(CC2CCCCC2)CC1 [Compound 257] | < 25% | + (activity was measured to be greater than 5.0 μM) | < 25% | + (activity was measured to be greater than 5.0 μM) | < 25% | + (activity was measured to be greater than 5.0 μM) | 25 to 100% | + (activity was measured to be greater than 5.0 μM) | – | – | – | –
COc1ccccc1C1(O)CCN(CC2CC3C=CC2C3)CC1 (stereo not shown) [Compound 29] | 25 to 100% | + (activity was measured to be greater than 5.0 μM) | < 25% | + (activity was measured to be greater than 5.0 μM) | – | + (activity was measured to be greater than 5.0 μM) | 25 to 100% | ++ (activity was measured to be from 1.0 μM to 5.0 μM) | – | – | – | –
